Molecules are shown by their SMILES. Read-outs that look alike come from different tables or passages of the source. Some results are limits rather than exact numbers.

A word on the EC50: it is the concentration at which the effect is half-maximal. For orientation: IC50 means the concentration that gives 50% inhibition.

The conditions of series [1]: baboon, cited from earlier work.
In series [2] the test system is Sprague-Dawley rats. In words: Spontaneous locomotor activity in rats (Example 141). It is filed as in vivo, rat. The settings on record: 10 mg/kg i.p. How it is done: The effect of 124 and 126 on spontaneous locomotor activity in rats was determined according to the procedures outlined by Silverman et al. (Motor Activity. In “Animal behavior in the laboratory”, Chapman and Hall eds, London, p. 79-92, 1978) and Boissier et al. (Arch. Int. Pharmacodyn. 1965, 158, 212. )
Test items and test item vehicles were administered to male Sprague-Dawley rats (n=10) as a single i.p. dose (vehicle A=10% hydroxypropyl-β-cyclodextrin in water; vehicle B=4:1 5% aqueous dextrose:PEG 400). […] Locomotor activity was determined during 20 minute periods using video image analyzers. Images recorded with video cameras were digitalized and displacements of the center of gravity of the digital image spot were tracked and analyzed. When the speed of displacement of the center of gravity of the spot was below 4.26 cm/sec, the movement was considered as inactivity. When this speed was between 4.26 and 6.75 cm/sec, the movement was considered as a small movement. When this speed was above 6.75 cm/sec, the movement was considered as a large movement. The number of occurrences, distance and duration of fast and slow movements, number of occurrences and duration of periods of inactivity and number of rears were measured.

For series [3] the following is noted: cited from earlier work; for time of peak uptake into the brain: dosed intravenously; for half-life in the brain: intravenous.
Series [4] concerns Sprague-Dawley rats. In words: Spontaneous locomotor activity in rats, 1-24 hours (Example 223). It is filed as in vivo, rat. The settings on record: 10 mg/kg i.p. How it is done:
The effect of 124 and 126 on spontaneous locomotor activity in rats was determined according to the procedures outlined by Silverman et al. (Motor Activity. In “Animal behavior in the laboratory”, Chapman and Hall eds, London, p. 79-92, 1978) and Boissier et al. (Arch. Int. Pharmacodyn. 1965, 158, 212. ) Test items and test item vehicles were administered to male Sprague-Dawley rats (n=10) as a single i.p. dose. One, three, five, eight and twenty four hours following administration, rats were placed in a plastic box 30×30 cm in a room with low light intensity (maximum 50 lux). Locomotor activity was determined during 20 minute periods using video image analyzers. Images recorded with video cameras were digitalized and displacements of the center of gravity of the digital image spot were tracked and analyzed. When the speed of displacement of the center of gravity of the spot was below 4.26 cm/sec, the movement was considered as inactivity. When this speed was between 4.26 and 6.75 cm/sec, the movement was considered as a small movement. When this speed was above 6.75 cm/sec, the movement was considered as a large movement. The number of occurrences, distance and duration of fast and slow movements, number of occurrences and duration of periods of inactivity and number of rears were measured.

Series [5] has as its target T1, DAT (Homo sapiens, UniProt Q01959). To be noted: dosed orally, 60 mg; cited from earlier work.
Series [6] addresses T1, DAT. In words: cell-based. Also on record: expressed in transfected cells. To be noted: hDAT cell line; read-out: DA Uptake, Functional Assays (antagonism, EC50).
Series [7] has as its target T2, serotonin transporter (Homo sapiens, UniProt P31645). In words: 5-HT uptake: displacement of serotonin ligands in vitro (methods of Gu et al.). The format is binding.
In series [8] the target is T3, norepinephrine transporter (Homo sapiens, UniProt P23975). In words: NE uptake: displacement of norephinephrine ligands in vitro (methods of Galli et al.). The format is binding.
In the next series the test system is ICR derived mice. In words: In vivo evaluation of 4: acute toxic symptoms, autonomic effects and mortality after i.v. dosing. Also on record: species or system mouse. The settings on record: i.v., 5, 10, 20, and 30 mk/kg. How it is done: Compound 4 was administered i.v. to a group of 3 ICR derived male or female mice (˜22 gms) and observed for the presence of acute toxic symptoms (mortality, convulsions, tremors, muscle relaxation, sedation, etc.) and autonomic effects (diarrhea, salvation, lacrimation, vasodilation, piloerection, etc) during first 5 min (i.v).
Compound 4 was administered at doses of 5, 10, 20, and 30 mk/kg. […] After monitoring daily for 3 days, no mortality was observed.

In series [9] the target is dopamine transporter (Homo sapiens, UniProt Q01959). As to the kind of experiment: DA uptake: displacement of dopamine ligands in vitro (methods of Gu et al.). To be noted: DA Uptake, Uptake Profile (IC50, nM), displacement of dopamine ligands in vitro.
The test system of a further series is rat. In words: Acute toxicity assessment, maximum tolerated dose i.v., rat. The settings on record: rats, 30 mg/kg i.v. It is filed as in vivo. How it is done:
(§1) An in vivo evaluation was carried out to determine the maximum tolerated dose of numerous test compounds in two animal species (mouse and rat). The compounds were administered i.v. and the animals were then observed for 72 h. Compounds 114, 115, 113, 110, 124, 125, 129, and 130 were solubilized in 5% dextrose (w/v)/polyethylene glycol 400 (4:1 v/v). Compounds 126, 127, 131, and 132 were solubilized in 10% hydroxypropyl-β-cyclodextrin (w/v).

Series [10] concerns Sprague-Dawley rats. As to the kind of experiment: Spontaneous locomotor activity in rats (Example 123). The format is in vivo, rat. To be noted: 20 mg/kg i.p., 60 minutes after administration. How it is done: Male Sprague-Dawley rats, (Iffa Credo, Saint-Germain/L'Arbresle, France), weighing 200-250 g at the beginning of the study, were used.
During acclimatization period, rats were housed, 2 or 3 per cage, in Makrolon type III cages, in the animal room (temperature: 20±2° C., humidity: minimum 45%, air changes:>12 per hour, light/dark cycle of 12 h/12 h [on at 7:00 A.M.]). Animals were allowed a minimum of 5 days period before experiment for acclimatization.
Rats received food (TrouwNutrition, Vigny, France) and water (tap water in water bottle) ad libitum. Rats were placed on a sawdust bedding in their cages (Goldchips, Trouw Nutrition, Vigny, France). On the day before experiments, food was withdrawn to have animals fasted overnight.
On the day of experiment, test item(s) were solubilized in 5% dextrose (w/v)/polyethylene glycol (PEG) 400 (4:1 v/v).
All test compounds were administered at 20 mg/kg as a single i.p. dose.
Twenty, 60 and 120 minutes after administration, rats were placed in a plastic box 30×30 cm in a room with low light intensity (maximum 50 lux). Locomotor activity was determined during 20 min periods using a video image analyzer (Videotrack, View Point, France). Number of occurences, distance and duration of fast and slow movements, number of occurences and duration of periods of inactivity and number of rears were measured.

Series [11] concerns the target T3, norepinephrine transporter. As to the kind of experiment: Functional activity, norephinephrine uptake inhibition in MDCK cell lines. The format is cell-based.
The test system of a further series is mouse. As to the kind of experiment: Acute toxicity assessment, maximum tolerated dose i.v., mouse. The format is in vivo. The settings on record: mice, 30 mg/kg i.v. How it is done:
as §1

Series [12] addresses T2, serotonin transporter. As to the kind of experiment: Functional activity, serotonin uptake inhibition in human HEK-293 cell lines. The format is cell-based. The arrangement: expressed in transfected cells; host or cells: HEK-293. To be noted: 5-HT Uptake, Functional Assays (antagonism, EC50, nM).
For series [13] the following is noted: locomotor activity tests; cited from earlier work.
For series [14], the target named is dopamine transporter (Rattus norvegicus, UniProt P23977). The settings on record: read-out: binding affinity for the dopamine transporter (IC50); cited from earlier work.
Another series has as its system rats and monkeys. To be noted: cited from earlier work; for effect on self-administration of cocaine: rats and monkeys.
Where [15] appears, read: 5-HT Uptake, Uptake Profile (IC50, nM).
Where [16] appears, read: NE Uptake, Uptake Profile (IC50, nM).

T2 sequence (P31645 whole entry): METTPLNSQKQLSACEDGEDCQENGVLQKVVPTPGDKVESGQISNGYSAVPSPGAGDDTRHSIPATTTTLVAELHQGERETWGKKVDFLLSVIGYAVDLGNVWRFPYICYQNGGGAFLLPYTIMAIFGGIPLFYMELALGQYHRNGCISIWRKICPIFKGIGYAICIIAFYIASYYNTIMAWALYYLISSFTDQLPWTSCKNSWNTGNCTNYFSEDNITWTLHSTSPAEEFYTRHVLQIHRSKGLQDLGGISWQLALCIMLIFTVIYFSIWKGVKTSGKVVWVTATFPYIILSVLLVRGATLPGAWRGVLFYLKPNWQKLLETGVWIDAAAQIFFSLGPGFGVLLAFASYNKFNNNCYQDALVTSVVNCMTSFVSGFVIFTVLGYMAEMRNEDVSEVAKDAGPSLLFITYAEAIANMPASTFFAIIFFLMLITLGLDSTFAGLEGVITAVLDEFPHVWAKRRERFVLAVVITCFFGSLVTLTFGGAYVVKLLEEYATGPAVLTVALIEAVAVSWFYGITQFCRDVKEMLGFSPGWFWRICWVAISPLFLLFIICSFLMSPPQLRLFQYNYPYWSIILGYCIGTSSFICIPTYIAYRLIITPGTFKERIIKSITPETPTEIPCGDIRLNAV
T3 sequence (P23975 whole entry): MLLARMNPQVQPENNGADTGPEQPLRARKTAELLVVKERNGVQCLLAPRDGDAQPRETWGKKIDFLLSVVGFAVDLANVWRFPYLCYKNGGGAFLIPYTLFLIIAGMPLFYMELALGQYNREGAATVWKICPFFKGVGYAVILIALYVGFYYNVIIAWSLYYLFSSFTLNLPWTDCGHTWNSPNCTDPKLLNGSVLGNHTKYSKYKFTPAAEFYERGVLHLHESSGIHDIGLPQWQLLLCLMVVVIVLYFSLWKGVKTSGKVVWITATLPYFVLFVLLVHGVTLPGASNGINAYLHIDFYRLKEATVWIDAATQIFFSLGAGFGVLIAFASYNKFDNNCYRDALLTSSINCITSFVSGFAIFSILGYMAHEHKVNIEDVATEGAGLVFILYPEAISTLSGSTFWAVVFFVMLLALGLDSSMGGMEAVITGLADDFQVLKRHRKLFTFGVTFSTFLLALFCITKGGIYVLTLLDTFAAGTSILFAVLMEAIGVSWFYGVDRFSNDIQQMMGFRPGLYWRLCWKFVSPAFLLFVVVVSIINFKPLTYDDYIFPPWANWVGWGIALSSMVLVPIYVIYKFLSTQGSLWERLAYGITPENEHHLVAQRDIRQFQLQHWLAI
T1 sequence (Q01959 whole entry): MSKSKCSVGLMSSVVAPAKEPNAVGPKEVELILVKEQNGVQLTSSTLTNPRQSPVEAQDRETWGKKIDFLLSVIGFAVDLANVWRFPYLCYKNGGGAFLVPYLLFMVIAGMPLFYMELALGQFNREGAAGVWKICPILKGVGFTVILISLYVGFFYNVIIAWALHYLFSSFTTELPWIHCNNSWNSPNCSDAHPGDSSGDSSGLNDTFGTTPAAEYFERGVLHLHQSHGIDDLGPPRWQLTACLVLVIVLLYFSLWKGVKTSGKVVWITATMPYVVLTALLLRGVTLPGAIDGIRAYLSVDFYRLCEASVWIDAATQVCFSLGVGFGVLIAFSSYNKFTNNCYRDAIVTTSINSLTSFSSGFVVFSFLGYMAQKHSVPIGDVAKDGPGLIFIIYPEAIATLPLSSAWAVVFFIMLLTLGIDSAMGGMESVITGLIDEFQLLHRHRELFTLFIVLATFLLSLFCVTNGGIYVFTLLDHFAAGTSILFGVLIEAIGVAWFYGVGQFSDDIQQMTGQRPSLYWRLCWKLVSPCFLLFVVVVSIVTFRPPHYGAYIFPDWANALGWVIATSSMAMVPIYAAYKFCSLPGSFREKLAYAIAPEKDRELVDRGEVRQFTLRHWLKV
Sequence of dopamine transporter (Homo sapiens, UniProt Q01959) (Q01959 whole entry): as above
Sequence of dopamine transporter (Rattus norvegicus, UniProt P23977) (P23977 whole entry): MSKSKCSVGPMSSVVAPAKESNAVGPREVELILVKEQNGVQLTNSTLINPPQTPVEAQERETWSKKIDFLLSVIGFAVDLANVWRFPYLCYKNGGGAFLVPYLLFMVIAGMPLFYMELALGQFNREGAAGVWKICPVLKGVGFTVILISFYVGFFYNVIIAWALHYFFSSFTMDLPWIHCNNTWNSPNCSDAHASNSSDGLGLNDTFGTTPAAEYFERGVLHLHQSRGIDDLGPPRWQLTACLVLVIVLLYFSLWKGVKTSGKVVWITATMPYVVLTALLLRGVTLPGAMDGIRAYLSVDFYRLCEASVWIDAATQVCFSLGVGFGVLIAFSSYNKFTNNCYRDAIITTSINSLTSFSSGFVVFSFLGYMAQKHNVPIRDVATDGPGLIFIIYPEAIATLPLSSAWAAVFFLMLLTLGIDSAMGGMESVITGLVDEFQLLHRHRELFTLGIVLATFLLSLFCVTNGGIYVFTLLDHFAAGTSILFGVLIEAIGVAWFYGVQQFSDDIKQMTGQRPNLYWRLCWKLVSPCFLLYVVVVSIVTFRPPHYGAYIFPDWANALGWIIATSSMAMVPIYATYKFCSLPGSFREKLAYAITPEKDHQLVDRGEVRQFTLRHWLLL

With `COC(=O)C(c1ccccc1)C1CCCCN1` (stereo not drawn) [methylphenidate, reference compound], the “time to peak concentration in brain” value in series [1] (intravenous) was 8 to 10 min; in series [1] (orally dosed), 60 min. Further, the “Large Movement Occurrences” value in the series on Sprague-Dawley rats [2] (20 min) is on record as 974.3 ± 125.5 ^; in the series on Sprague-Dawley rats [2] (60 min) it was 423.9 ± 75.9; with Sprague-Dawley rats [2] (120 min) it was 191.8 ± 37.1 ^; in the series with Sprague-Dawley rats [4] (1 hour) it was 958 ± 118 ^; with Sprague-Dawley rats [4] (3 hours) it was 504 ± 114 ^; with Sprague-Dawley rats [4] (5 hours), 196 ± 62^. Also, the “Large Movement Occurrences” value in the series on Sprague-Dawley rats [4] (8 hours) is given as 71 ± 20 ^; in the series with Sprague-Dawley rats [4] (24 hours) it was 335 ± 68^. Further, the “Small Movement Occurrences” value was 1537.0 ± 97.3 ^ with Sprague-Dawley rats [2] (20 min); 992.0 ± 126.7 ^ with Sprague-Dawley rats [2] (60 min); 555.0 ± 87.0 with Sprague-Dawley rats [2] (120 min); 1595 ± 83 ^ in the series on Sprague-Dawley rats [4] (1 hour); 1072 ± 122^ in the series with Sprague-Dawley rats [4] (3 hours); 612 ± 108 ^ in the series on Sprague-Dawley rats [4] (5 hours). For the same compound, the “Small Movement Occurrences” value is given as 358 ± 65^ with Sprague-Dawley rats [4] (8 hours) and 790 ± 81^ in the series with Sprague-Dawley rats [4] (24 hours). In addition, the “time of peak uptake into the brain” value in series [3] was 8 to 10 min. Also, the “half-life in the brain” value in [3] was 90 min. For the same compound, at DAT [5], the DAT occupancy was 70-72%. In addition, the ““high” in subjects” value at DAT [5] is “no “high” was observed”.

Turning to `Clc1ccc(C2(CN3CCCC(COc4ccccc4)C3)CCC2)cc1` (stereo not drawn) [compound 4], the half-maximal effective concentration (EC50) at DAT [6] was less than 1000 nM. Also, the IC50 at serotonin transporter [7] (setting [15]) is greater than 1000 nM; in series [8] (setting [16]), greater than 1000 nM; at dopamine transporter [9], less than 1000 nM. Further, in the series on ICR derived mice, the “change in autonomic signs of behavior” value was “No obvious change”. Further, the mortality result with ICR derived mice (monitored daily for 3 days) is reported as “no mortality”.

Take `FC(F)(F)c1ccc(OC[C@@H]2CCCN(CC3(c4ccc(Cl)cc4)CCC3)C2)cc1` [compound 114, (R)-1-[1-(4-chloro-phenyl)-cyclobutylmethyl]-3-(4-trifluoromethyl-phenoxymethyl)-piperidine]: the “tolerability and mortality after 72 h” value in the series with rat and in the series with mouse was “well tolerated” throughout. For the same compound, the “locomotor activity compared to control animals” value with Sprague-Dawley rats [10] is “significant increase”. Besides, the EC50 is less than 1000 nM in series [11], less than 10 nM on DAT [6] and greater than 1000 nM at serotonin transporter [12]. The IC50 at serotonin transporter [7] (read-out: 5-HT Uptake, Uptake Profile (IC50)) is greater than 1000 nM; in series [8] (read-out: NE Uptake, Uptake Profile (IC50)), less than 1000 nM; on dopamine transporter [9], less than 100 nM.

As for `FC(F)(F)c1ccc(OC[C@H]2CCCN(CC3(c4ccc(Cl)cc4)CCC3)C2)cc1` [compound 115, (S)-1-[1-(4-chloro-phenyl)-cyclobutylmethyl]-3-(4-trifluoromethyl-phenoxymethyl)-piperidine], the “tolerability and mortality after 72 h” value with rat and in the series on mouse was “well tolerated” in each case. For the same compound, in the series with Sprague-Dawley rats [10], the “locomotor activity compared to control animals” value was “significant increase”. Also, the 50% effective concentration (EC50) in series [11] is less than 1000 nM; on DAT [6] it was less than 10 nM; on serotonin transporter [12] it was greater than 1000 nM. Further, the IC50 was greater than 1000 nM at serotonin transporter [7] (setting [15]), less than 1000 nM in series [8] (setting [16]) and less than 100 nM on dopamine transporter [9].

For the compound `Clc1ccc(C2(CN3CCC[C@H](COc4ccc5c(c4)OCO5)C3)CCC2)cc1` [compound 113, (S)-3-(Benzo[1,3]dioxol-5-yloxymethyl)-1-[1-(4-chloro-phenyl)-cyclobutylmethyl]-piperidine], the “tolerability and mortality after 72 h” value in the series with rat and in the series with mouse was “well tolerated” in each case. For the same compound, in the series on Sprague-Dawley rats [10], the “locomotor activity compared to control animals” value is given as “significant increase”. Besides, the EC50 is less than 1000 nM in series [11], less than 10 nM at DAT [6] and greater than 1000 nM on serotonin transporter [12]. Besides, the concentration for half-maximal inhibition (IC50) at serotonin transporter [7] (displacement of serotonin ligands in vitro, read-out: 5-HT Uptake, Uptake Profile (IC50)) was less than 1000 nM; in series [8] (setting [16]) it was less than 1000 nM; on dopamine transporter [9], less than 100 nM.

As to `COC(=O)[C@H]1[C@@H](OC(=O)c2ccccc2)C[C@@H]2CC[C@H]1N2C` [cocaine], the “time to peak concentration in brain” value in [1] (intravenous) is 4 to 6 min. In addition, in series [3], the “time of peak uptake into the brain” value is 4 to 6 min and the “half-life in the brain” value was 20 min.

As for `CN1[C@H]2CC[C@@H]1[C@@H](C(=O)Oc1ccccc1)[C@@H](c1ccc(Cl)cc1)C2` [RTI-113], in [13], the duration of action entry was “over 4 hours” and the “time to peak action after administration” value is 30 to 60 min. Moreover, the half-inhibitory concentration (IC50) at dopamine transporter [14] was 1.98 nM. Moreover, in the series on rats and monkeys (60% occupancy of the dopamine transporter), the “effectiveness of elimination of cocaine consumption” value is listed as 92%. In the series on rats and monkeys, the “effect on self-administration of cocaine” value is given as “inhibits self-administration of cocaine”.

In the case of `Cc1ccc(-c2cc([C@@H]3C4CCC(C[C@@H]3c3ccc(Cl)cc3)N4C)on2)cc1` (stereo partly drawn) [RTI-336], in series [13], the “time to peak action after administration” value was 70 to 100 min. In addition, the IC50 on dopamine transporter [14] was 4.09 nM. The “effect on self-administration of cocaine” value in the series with rats and monkeys was “effective blocking of cocaine self-administration”.
